This is an account of results in patent publication US11623924B2, “Modulators of alpha-1 antitrypsin” (Vertex Pharmaceuticals Incorporated, priority 2018, dated 2023).

Molecules are shown by their SMILES.

One may read the EC50 as the concentration at which the effect is half-maximal.

The target in the experiment is T1, NL20 human bronchial epithelial cells expressing human Z-AAT (Homo sapiens, UniProt P01009, E366K).
T1 construct: expressed in transfected cells; host or cells: NL20 human bronchial epithelial cells (NL20-SI line, doxycycline added)
Briefly: AAT Function Assay (MSD Assay NL20-SI Cell Line). The format is cell-based. Conditions: functionally active AAT (AAT-hNE complex) in supernatant of NL20 cells expressing human Z-AAT; read-out: NL20 Func. (EC50). The method, then: A. AAT Function Assay (MSD Assay NL20-SI Cell Line)
Alpha-1 antitrypsin (AAT) is a SERPIN (serine protease inhibitor) that inactivates enzymes by binding to them covalently. This assay measured the amount of functionally active AAT in a sample in the presence of the disclosed compounds 1-215 by determining the ability of AAT to form an irreversible complex with human neutrophil Elastase (hNE). In practice, the sample (cell supernatant, blood sample, or other) was incubated with excess hNE to allow AAT-Elastase complex to be formed with all functional AAT in the sample. This complex was then captured to a microplate coated with an anti-AAT antibody. The complex captured to the plate was detected with a labeled anti-Elastase antibody and quantitated using a set of AAT standards spanning the concentration range present in the sample. Meso Scale Discovery (MSD) plate reader, Sulfo-tag labeling, and microplates were used to provide high sensitivity and wide dynamic range.
• 1. Harvest NL20 human bronchial epithelial cells expressing human Z-AAT in OptiMEM™ containing Pen/Strep (P/S) • 2. Seed at 16,000 cells/well in 30 μL (384 well plate) • 3. Centrifuge plates briefly up to speed (1200 rpm) and place into 37° C. incubator overnight Day 2: Compound Addition and Coating Plates with Capture Antibody Compound Addition: • 1. Dispense 40 μL of OptiMEM™ (P/S) with doxycycline (1:1000 stock=0.1 μM final) to each well of the compound plate using a multidrop Combi in hood • 2. Remove cell plate from incubator, flip/blot and take immediately to Bravo to transfer compounds • 3. Return plates to incubator overnight Coat MSD Plates • 1. Dilute capture antibody (Polyclonal Goat anti-AAT) to 5 μg/mL (1:200) in PBS (no BSA). • 2. Dispense 25 μL of diluted capture antibody into all wells of MSD 384-well High Bind plate using the Multidrop equipped with a standard cassette. • 3. Incubate overnight at 4° C. Prepare Blocker A (BSA) Solutions • 1. Prepare solution of 5% MSD Blocker A (BSA) following the manufacturer's instructions. • 2. Further dilute the 5% MSD Blocker A in PBS to 1% (Blocker A) as needed. Day 3: Run MSD Assay
Block Plates • 1. Wash plate 1× with 50 μL Wash buffer (PBS+0.5% Tween 20), and adds 35 μL 5% Block A buffer to block non-specific binding on washer dispenser • 2. Rotate plates on shaker for 1 hour at 600 rpm
Prepare M-AAT Standards • 1. Dilute M-AAT stock to 1.6 μg/mL in 1% BSA Blocker A (Stock in −70° C.); then prepare 12×1:2 serial dilutions in 1% Blocker A • 2. The top starting final concentration on MSD plate is 320 ng/mL. These dilutions correspond to a final concentration of 320, 160, 80, 40, 20, 10, 5, 2.5, 1.25, 0.625, 0.312, 0.156 ng/mL.
Dilution Plate • 1. Add 80 μL of 1% Assay buffer to all wells except columns 1/24 (standards) with Multidrop Combi • 2. Add diluted standards to columns 1 and 24 • 3. Centrifuge dilution plates 1200 rpm briefly
Cell Plate • 1. Aspirate columns which will have the standards from the cell plates in the hood using 16-pin aspirator
Prepare Human Neutrophil Elastase (hNE) • 1. Prepare 1 μg/mL Human Neutrophil Elastase by diluting in 1% Blocker A. • a. Small 100 μg vial—add 1 mL PBS (100 μg/mL) • i. This can then be diluted 1:100 in 1% Assay Buffer for a final 1 μg/mL concentration
MSD—Add hNE (20 μL/well) • 1. After the MSD plate has blocked for at least 1 hour, wash plate 1× with 50 μL Wash buffer (PBS+0.5% Tween 20) and then add 20 μL hNE to each well
Bravo—Cell Plate—Dilution Plate—MSD Plate
Using the Bravo aspirate 10 μL from the cell plate, transfer to the dilution plate (9-fold dilution)
• 1. Mix 25 μL 3×, then aspirate 5 μL, transfer to MSD plate (5-fold dilution) • 2. Mix 10 μL 3×. Total dilution is 45 fold. • 3. Shake plates at 600 rpm for 1.5 hours
Add Functional detection hNE antibody • 1. Wash plate 1× with wash buffer • 2. […]

T1 sequence (P01009 25-418 E366K): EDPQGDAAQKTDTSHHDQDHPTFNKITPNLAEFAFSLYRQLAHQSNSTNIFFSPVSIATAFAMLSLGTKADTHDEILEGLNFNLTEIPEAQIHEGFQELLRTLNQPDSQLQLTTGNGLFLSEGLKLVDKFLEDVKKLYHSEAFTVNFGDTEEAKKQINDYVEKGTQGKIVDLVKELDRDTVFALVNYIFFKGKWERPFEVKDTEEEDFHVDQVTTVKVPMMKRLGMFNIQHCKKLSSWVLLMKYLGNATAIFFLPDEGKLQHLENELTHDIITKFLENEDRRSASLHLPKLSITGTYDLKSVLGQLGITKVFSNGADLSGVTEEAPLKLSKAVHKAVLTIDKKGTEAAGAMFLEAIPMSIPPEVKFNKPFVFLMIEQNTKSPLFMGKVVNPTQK

In the case of `O=C(O)C1CC2(C1)CC(c1c(C3C[C@H]4CC[C@@H](C3)O4)n(-c3ccc(F)cc3)c3cc4cn[nH]c4cc13)C2` (mixture of isomers) [Compound 122, 6-[5-(4-fluorophenyl)-6-(8-oxabicyclo[3.2.1]octan-3-yl)-1H-pyrrolo[2,3-f]indazol-7-yl]spiro[3.3]heptane-2-carboxylic Acid], the EC50 was 1.16 to 3 µM.

Turning to `CC(C)c1c(-c2ccc(Cl)cc2)c2cc3cn[nH]c3cc2n1CCC(=O)O` [Compound 206, 3-[5-(4-chlorophenyl)-6-isopropyl-1H-pyrrolo[3,2-f]indazol-7-yl]propanoic Acid], the concentration for a half-maximal effect (EC50) fell in the range of 1.16 to 3 µM. Turning to `Cc1cc(-n2c(C3CCOCC3)c(C[C@H]3CC[C@H](C(=O)O)CC3)c3cc4[nH]ncc4cc32)ccc1F` (single isomer, unassigned) [Compound 106], the EC50 was less than 1.16 µM. To `Cc1cc(-n2c(C(C)C)c(CC(C)C(=O)O)c3cc4[nH]ncc4cc32)ccc1F` (racemic) [Compound 19] belongs less than 1.16 µM. To `O=C(O)CCc1c(C2CCOCC2)n(-c2ccc(F)cc2)c2cc3cn[nH]c3cc12` [Compound 107] belongs greater than 3 µM; to `Cc1cc(-n2c(C3CCOCC3)c(CC3CC3C(=O)O)c3cc4[nH]ncc4cc32)ccc1F` (single isomer, unassigned) [Compound 101], greater than 3 µM; to `CC(C)c1c(CCC(=O)O)c2cc3[nH]ncc3cc2n1-c1ccc(F)cc1` [Compound 32, 3-[5-(4-fluorophenyl)-6-isopropyl-1H-pyrrolo[2,3-f]indazol-7-yl]propanoic Acid], 1.16 to 3 µM. The figure for `O=C(O)[C@H]1C[C@H](Cc2c(C3CCOCC3)n(-c3ccc(F)cc3)c3cc4cn[nH]c4cc23)C1` [Compound 118] is greater than 3 µM; for `Cc1cc(-n2c(C(C)C)cc3c(I)c4[nH]ncc4cc32)ccc1F` [Compound 48, 5-(4-fluoro-3-methyl-phenyl)-8-iodo-6-isopropyl-1H-pyrrolo[2,3-f]indazole] it is greater than 3 µM; for `CS(=O)(=O)c1c(C2CCOCC2)n(-c2ccc(F)cc2)c2cc3cn[nH]c3cc12` [Compound 62, 5-(4-fluorophenyl)-7-methylsulfonyl-6-tetrahydropyran-4-yl-1H-pyrrolo[2,3-f]indazole] it is greater than 3 µM.

Turning to `[2H]C([2H])(Cc1c(C(C)C)n(-c2ccc(F)cc2)c2cc3cn[nH]c3cc12)C(=O)O` [Compound 170, 2,2-dideuterio-3-[5-(4-fluorophenyl)-6-isopropyl-1H-pyrrolo[2,3-f]indazol-7-yl]propanoic Acid], the EC50 lay within 1.16 to 3 µM. Take `Cc1cc(-n2c(C3CCOCC3)c(C[C@H]3C[C@H](C(=O)O)C3)c3cc4[nH]ncc4cc32)ccc1F` (single isomer, unassigned) [Compound 98]: the EC50 lay in the range of 1.16 to 3 µM. To `CC(C)c1c(C2CNC2)c2cc3[nH]ncc3cc2n1-c1ccc(F)cc1` [Compound 174, 7-(azetidin-3-yl)-5-(4-fluorophenyl)-6-isopropyl-1H-pyrrolo[2,3-f]indazole] belongs greater than 3 µM; to `O=C(O)C1CC(Cc2c(C3CCOCC3)n(-c3ccc(F)c(Cl)c3)c3cc4cn[nH]c4cc23)C1` (mixture of isomers) [Compound 79], 1.16 to 3 µM. To `CC(C)c1c(CCC(=O)N2C[C@@H](O)[C@H](O)C2)c2cc3[nH]ncc3cc2n1-c1ccc(F)cc1` [Compound 212, 1-[(3R,4R)-3,4-dihydroxypyrrolidin-1-yl]-3-[5-(4-fluorophenyl)-6-isopropyl-1H-pyrrolo[2,3-f]indazol-7-yl]propan-1-one] belongs greater than 3 µM; to `CC(C)c1c(C#N)c2cc3[nH]ncc3cc2n1-c1cccc(Cl)c1` [Compound 45, 5-(3-chlorophenyl)-6-isopropyl-1H-pyrrolo[2,3-f]indazole-7-carbonitrile], greater than 3 µM. The figure for `Fc1ccc(-n2c(C3CCOCC3)c(Cl)c3cc4[nH]ncc4cc32)cc1` [Compound 63, 7-chloro-5-(4-fluorophenyl)-6-tetrahydropyran-4-yl-1H-pyrrolo[2,3-f]indazole] is 1.16 to 3 µM. Take `N#Cc1n[nH]c2cc3c(C4CC5(CC(C(=O)O)C5)C4)c(C4CCOCC4)n(-c4ccc(F)c(F)c4)c3cc12` (stereo not drawn) [Compound 186, 6-[3-cyano-5-(3,4-difluorophenyl)-6-tetrahydropyran-4-yl-1H-pyrrolo[2,3-f]indazol-7-yl]spiro[3.3]heptane-2-carboxylic Acid]: the EC50 was greater than 3 µM. To `Cc1cc(-n2c(C(C)C)c(C3CC4(CC(C(=O)O)C4)C3)c3cc4[nH]ncc4cc32)ccc1F` (single isomer, unassigned) [Compound 26] belongs less than 1.16 µM; to `CC(C)c1c(CCC(=O)O)c2cc3[nH]ncc3cc2n1-c1ccc(F)c(F)c1` [Compound 38, 3-[5-(3,4-difluorophenyl)-6-isopropyl-1H-pyrrolo[2,3-f]indazol-7-yl]propanoic Acid], 1.16 to 3 µM. As to `Cc1cc(-n2c(C(C)C)c(S(C)(=O)=O)c3cc4[nH]nnc4cc32)ccc1F` [Compound 199, 5-(4-fluoro-3-methyl-phenyl)-6-isopropyl-7-methylsulfonyl-1H-pyrrolo[2,3-f]benzotriazole], the EC50 was greater than 3 µM. `[H][C@]1(C(=O)O)C[C@]2(C1)C[C@@]([H])(c1c(C3CCOCC3)n(-c3ccc(F)c(C)c3)c3cc4cn[nH]c4cc31)C2` (single isomer, unassigned) [Compound 91]: the concentration giving a half-maximal response (EC50) is less than 1.16 µM. With `O=C(O)C1CC(Cc2c(C3CCOCC3)n(-c3ccc(F)c(Cl)c3)c3cc4cn[nH]c4cc23)C1` (single isomer, unassigned) [Compound 81], the EC50 lay in the range of 1.16 to 3 µM. For the compound `Cc1cc(-n2c(C(C)C)c(C3CC(CC(=O)O)C3)c3cc4[nH]ncc4cc32)ccc1F` (mixture of isomers) [Compound 22], the EC50 is less than 1.16 µM. The figure for `CC(C)c1c(CCC(=O)O)n(-c2ccc(F)cc2)c2cc3cn[nH]c3cc12` [Compound 194, 3-[5-(4-fluorophenyl)-7-isopropyl-1H-pyrrolo[2,3-f]indazol-6-yl]propanoic Acid] is greater than 3 µM; for `Cc1cc(-n2c(C3(C)COC3)cc3cc4[nH]ncc4cc32)ccc1F` [Compound 138, 5-(4-fluoro-3-methyl-phenyl)-6-(3-methyloxetan-3-yl)-1H-pyrrolo[2,3-f]indazole] it is greater than 3 µM.

For `Cc1cc(-n2c(C(C)C)c(C3CC4(CC(C(=O)O)C4)C3)c3cc4[nH]ncc4cc32)ccc1F` (racemic) [Compound 24], the EC50 is less than 1.16 µM. To `Cc1c2[nH]ncc2cc2c1c(C1=CC3(C1)CC(C(=O)O)C3)c(C1CCOCC1)n2-c1ccc(F)c(F)c1` (stereo not drawn) [Compound 132, 2-[5-(3,4-difluorophenyl)-8-methyl-6-tetrahydropyran-4-yl-1H-pyrrolo[2,3-f]indazol-7-yl]spiro[3.3]hept-2-ene-6-carboxylic Acid] belongs less than 1.16 µM; to `Cc1cc(-n2c(C(C)C)c(C(=O)O)c3cc4[nH]ncc4cc32)ccc1F` [Compound 3, 5-(4-fluoro-3-methyl-phenyl)-6-isopropyl-1H-pyrrolo[2,3-f]indazole-7-carboxylic Acid], 1.16 to 3 µM. Regarding `Cc1cc(-n2c(C(C)C)c(I)c3cc4[nH]ncc4cc32)ccc1F` [Compound 1, 5-(4-fluoro-3-methyl-phenyl)-7-iodo-6-isopropyl-1H-pyrrolo[2,3-f]indazole], the EC50 lay in the range of 1.16 to 3 µM.
